Reference: patent US20240199587A1, “HETEROCYCLIC COMPOUNDS” (Hoffmann-La Roche Inc., priority 2021, published 2024)

target: T1, MAGL (Homo sapiens, UniProt Q99685); test: 2-AG assay (MAGL inhibitory activity, hydrolysis of 2-arachidonoylglycerol to arachidonic acid followed by mass spectrometry); format: biochemical; conditions: 8 μM 2-arachidonoylglycerol, 15 min pre-incubation, 30 min incubation at RT, RapidFire MS readout
T1 sequence (Q99685 1-303): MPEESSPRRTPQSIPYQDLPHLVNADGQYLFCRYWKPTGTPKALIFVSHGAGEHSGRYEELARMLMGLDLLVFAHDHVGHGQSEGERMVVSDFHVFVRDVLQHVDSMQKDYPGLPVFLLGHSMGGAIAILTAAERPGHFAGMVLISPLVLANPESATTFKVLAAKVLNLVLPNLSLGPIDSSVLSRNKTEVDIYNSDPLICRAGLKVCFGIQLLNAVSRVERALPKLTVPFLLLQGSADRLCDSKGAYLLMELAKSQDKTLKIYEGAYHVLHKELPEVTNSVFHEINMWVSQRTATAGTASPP
Text: Compounds of formula (I) were profiled for MAGL inhibitory activity by determining the enzymatic activity by following the hydrolysis of the natural substrate 2-arachidonoylglycerol (2-AG) resulting in arachidonic acid, which can be followed by mass spectrometry. This assay is hereinafter abbreviated “2-AG assay”.
Compounds of formula (I) were profiled for MAGL inhibitory activity by determining the enzymatic activity by following the hydrolysis of the natural substrate 2-arachidonoylglycerol (2-AG) resulting in arachidonic acid, which can be followed by mass spectrometry. This assay is hereinafter abbreviated “2-AG assay”. The 2-AG assay was carried out in 384 well polypropylene assay plates. […] Compound dilutions were added to MAGL protein in assay buffer (50 mM TRIS, 1 mM EDTA, 0.01% (v/v) Tween-20, 2.5% (v/v) DMSO). After shaking, the plate was incubated for 15 min at RT. To start the reaction, 2-arachidonoylglycerol in assay buffer was added. The final concentrations in the assay was […] for MAGL protein and 8 μM 2-arachidonoylglyerol. After shaking and 30 min incubation at RT, the reaction was quenched by the addition of two assay volumes of acetonitrile containing 4 μM of d8-arachidonic acid. The amount of arachidonic acid formed was traced by an online SPE system (Agilent Rapidfire) coupled to a triple quadrupole mass spectrometer. A C18 SPE cartridge (Agilent G9205A) was used in an acetonitrile/water liquid setup. The mass spectrometer was operated in negative electrospray mode following the mass transitions 303.1→259.1 for arachidonic acid and 311.1→267.0 for d8-arachidonic acid. The activity of the compounds was calculated based on the ratio of intensities [arachidonic acid/d8-arachidonic acid].

Point of comparison: `Cc1ccc(C2CC3(C2)CN(C(=O)c2ccc(-c4noc(C(C)(C)C)n4)cc2)C3)cn1` [Example 23, [4-(5-tert-butyl-1,2,4-oxadiazol-3-yl)phenyl]−[6-(6-methyl-3-pyridyl)-2-azaspiro[3.3]heptan-2-yl]methanone], IC50 229 nM. Against it:
- CS(=N)(=O)c1cccc(CC2CC3(C2)CN(C(=O)N2CC4(CC(n5cnc(C6CC6)n5)C4)C2)C3)c1 (single isomer, unassigned) [Example 440, [6-(3-cyclopropyl-1,2,4-triazol-1-yl)-2-azaspiro[3.3]heptan-2-yl]-[6-[[3-(methylsulfonimidoyl)phenyl]methyl]-2-azaspiro[3.3]heptan-2-yl]methanone] — 120-fold lower, 1.88 nM
- CC(C)(C)c1nc(-c2ccc(C(=O)N3CC4(CC(n5ccc(C#N)n5)C4)C3)cc2)no1 [Example 8, 1-[2-[4-(5-tert-butyl-1,2,4-oxadiazol-3-yl)benzoyl]-2-azaspiro[3.3]heptan-6-yl]pyrazole-3-carbonitrile] — 2.1-fold higher, 485 nM
- CC(C)(C)c1nc(-c2ccc(C(=O)N3CC4(CC(n5cnc(C(F)(F)F)c5)C4)C3)cc2)no1 [Example 158, [4-(5-tert-butyl-1,2,4-oxadiazol-3-yl)phenyl]-[6-[4-(trifluoromethyl)imidazol-1-yl]-2-azaspiro[3.3]heptan-2-yl]methanone] — 3.3-fold lower, 69.1 nM
- O=C(N1CC2(CC(Oc3ccc(F)cc3F)C2)C1)N1CC2(CC(n3cnc(C4CC4)n3)C2)C1 [Example 59, (6-(3-cyclopropyl-1H-1,2,4-triazol-1-yl)-2-azaspiro[3.3]heptan-2-yl)(6-(2,4-difluorophenoxy)-2-azaspiro[3.3]heptan-2-yl)methanone] — 88-fold lower, 2.6 nM
- O=C(N1CC(c2ccc(N3CC[C@H](C(F)(F)F)C3)nc2)C1)N1CC2(CC(n3cnc(C4CC4)n3)C2)C1 [Example 476, [6-(3-cyclopropyl-1,2,4-triazol-1-yl)-2-azaspiro[3.3]heptan-2-yl]-[3-[6-[(3S)-3-(trifluoromethyl)pyrrolidin-1-yl]-3-pyridyl]azetidin-1-yl]methanone] — 410-fold lower, 0.56 nM
- N=S(=O)(c1cccc(CC2CC3(C2)CN(C(=O)N2CC4(CC(n5cnc(C6(O)CC6)n5)C4)C2)C3)c1)C(F)(F)F (single isomer, unassigned) [Example 407, [6-[3-(1-hydroxycyclopropyl)-1,2,4-triazol-1-yl]-2-azaspiro[3.3]heptan-2-yl]-[6-[[3-(trifluoromethyl-sulfonimidoyl)phenyl]methyl]-2-azaspiro[3.3]heptan-2-yl]methanone] — 920-fold lower, 0.25 nM
- O=C(N1CC2(CC(Cc3ccc(C(F)(F)F)nc3)C2)C1)N1CC2(CC(c3cncc(F)c3)C2)C1 [Example 515, [6-(5-fluoro-3-pyridyl)-2-azaspiro[3.3]heptan-2-yl]-[6-[[6-(trifluoromethyl)-3-pyridyl]methyl]-2-azaspiro[3.3]heptan-2-yl]methanone] — 2.4-fold lower, 95.8 nM
- O=C(N1CC(c2ccc(NCC3(C(F)(F)F)CC3)nc2)C1)N1CC2(CC(n3cnc(C4(O)CC4)n3)C2)C1 [Example 372, [6-[3-(1-hydroxycyclopropyl)-1,2,4-triazol-1-yl]-2-azaspiro[3.3]heptan-2-yl]-[3-[6-[[1-(trifluoromethyl)cyclopropyl]methylamino]-3-pyridyl]azetidin-1-yl]methanone] — 200-fold lower, 1.12 nM
- O=C(N1CC2(CC(n3cnc(C4CC4)n3)C2)C1)N1CC2(CN(Cc3ccc(S(=O)(=O)C(F)(F)F)cc3)C2)C1 [Example 469, [6-(3-cyclopropyl-1,2,4-triazol-1-yl)-2-azaspiro[3.3]heptan-2-yl]-[6-[[4-(trifluoromethylsulfonyl)phenyl]methyl]-2,6-diazaspiro[3.3]heptan-2-yl]methanone] — 480-fold lower, 0.48 nM
- CS(=N)(=O)c1cccc(CC2CC3(C2)CN(C(=O)N2CC4(CC(n5cnc(C6(O)CC6)n5)C4)C2)C3)c1 (stereo not drawn) [Example 374, [6-[3-(1-hydroxycyclopropyl)-1,2,4-triazol-1-yl]-2-azaspiro[3.3]heptan-2-yl]-[6-[[3-(methylsulfonimidoyl)phenyl]methyl]-2-azaspiro[3.3]heptan-2-yl]methanone] — 4.3-fold lower, 52.9 nM
- O=C(N1CC(c2noc(C3(C(F)(F)F)CC3)n2)C1)N1CC2(CC(n3cnc(C4CC4)c3)C2)C1 [Example 141] — within 1.5-fold, 332 nM
- CCc1ncn(C2CC3(C2)CN(C(=O)N2CC4(CC(Cc5ccc(F)cc5F)C4)C2)C3)n1 [Example 186, [6-[(2,4-difluorophenyl)methyl]-2-azaspiro[3.3]heptan-2-yl]-[6-(3-ethyl-1,2,4-triazol-1-yl)-2-azaspiro[3.3]heptan-2-yl]methanone] — 2300-fold lower, 0.1 nM
- CS(=N)(=O)c1ccc(CC2CC3(C2)CN(C(=O)N2CC4(CC(n5cnc(C6CC6)n5)C4)C2)C3)cc1 (single isomer, unassigned) [Example 443, [6-(3-cyclopropyl-1,2,4-triazol-1-yl)-2-azaspiro[3.3]heptan-2-yl]-[6-[[4-(methylsulfonimidoyl)phenyl]methyl]-2-azaspiro[3.3]heptan-2-yl]methanone] — 53-fold lower, 4.31 nM
- Cc1ccc(OC2CN(C(=O)N3CC4(CC(n5cnc(C6CC6)n5)C4)C3)C2)c(F)c1 [Example 241, (6-(3-cyclopropyl-1H-1,2,4-triazol-1-yl)-2-azaspiro[3.3]heptan-2-yl)(3-(2-fluoro-4-methylphenoxy)azetidin-1-yl)methanone] — 26-fold lower, 8.7 nM
- CC(C)(C)c1nc(-c2ccc(C(=O)N3CC4(CC(n5nccc5C5CC5)C4)C3)cc2)no1 [Example 180, [4-(5-tert-butyl-1,2,4-oxadiazol-3-yl)phenyl]-[6-(5-cyclopropylpyrazol-1-yl)-2-azaspiro[3.3]heptan-2-yl]methanone] — 20-fold higher, 4690 nM
- O=C(N1CC(c2ccc(N3CC(C(F)(F)F)C3)nc2)C1)N1CC2(CC(n3cnc(C(F)(F)F)n3)C2)C1 [Example 422, [3-[6-[3-(trifluoromethyl)azetidin-1-yl]-3-pyridyl]azetidin-1-yl]-[6-[3-(trifluoromethyl)-1,2,4-triazol-1-yl]-2-azaspiro[3.3]heptan-2-yl]methanone] — 81-fold lower, 2.81 nM
- O=C(N1CC2(CC(Oc3ccnc(C(F)(F)F)n3)C2)C1)N1CC2(CC(n3cnc(C4CC4)n3)C2)C1 [Example 55, [6-(3-cyclopropyl-1,2,4-triazol-1-yl)-2-azaspiro[3.3]heptan-2-yl]−[6-[2-(trifluoromethyl)pyrimidin-4-yl]oxy-2-azaspiro[3.3]heptan-2-yl]methanone] — 130-fold lower, 1.8 nM
- N#Cc1cc(C(F)(F)F)ncc1O[C@H]1CCC2(C1)CN(C(=O)N1CC3(CC(n4cnc(C5(O)CC5)n4)C3)C1)C2 [Example 387, 5-[[(6S)-2-[6-[3-(1-hydroxycyclopropyl)-1,2,4-triazol-1-yl]-2-azaspiro[3.3]heptane-2-carbonyl]-2-azaspiro[3.4]octan-6-yl]oxy]-2-(trifluoromethyl)pyridine-4-carbonitrile] — within 1.5-fold, 196 nM
- CNC(=O)[C@H](c1ccc(F)cc1)N1CCN(C(=O)N2CC3(CC(n4cnc(C5CC5)n4)C3)C2)CC1 [Example 330, (2S)-2-[4-[6-(3-cyclopropyl-1,2,4-triazol-1-yl)-2-azaspiro[3.3]heptane-2-carbonyl]piperazin-1-yl]-2-(4-fluorophenyl)-N-methyl-acetamide] — 3.2-fold higher, 744 nM
- CC(C)(C)c1nc(-c2ccc(C(=O)N3CC4(CC(n5cnc(C6CC6)n5)C4)C3)cc2)no1 [Example 3, [4-(5-tert-butyl-1,2,4-oxadiazol-3-yl)phenyl]−[6-(3-cyclopropyl-1,2,4-triazol-1-yl)-2-azaspiro[3.3]heptan-2-yl]methanone] — 45-fold lower, 5.1 nM
- CS(=O)(=O)c1ccc(CC2CC3(C2)CN(C(=O)N2CC4(CC(n5cnc(C6CC6)n5)C4)C2)C3)nc1 [Example 488, [6-(3-cyclopropyl-1,2,4-triazol-1-yl)-2-azaspiro[3.3]heptan-2-yl]-[6-[(5-methylsulfonyl-2-pyridyl)methyl]-2-azaspiro[3.3]heptan-2-yl]methanone] — 52-fold lower, 4.41 nM
- N#Cc1cc(CC2CC3(C2)CN(C(=O)N2CC4(CC(n5cnc(C6(O)CC6)n5)C4)C2)C3)cc(C(F)(F)F)c1 [Example 370, 3-[[2-[6-[3-(1-hydroxycyclopropyl)-1,2,4-triazol-1-yl]-2-azaspiro[3.3]heptane-2-carbonyl]-2-azaspiro[3.3]heptan-6-yl]methyl]-5-(trifluoromethyl) benzonitrile] — 250-fold lower, 0.9 nM
- O=C(N1CC2(CC(n3cnc(C(F)(F)F)n3)C2)C1)N1CC2(CN(Cc3ccc(S(=O)(=O)C(F)(F)F)cc3)C2)C1 [Example 353, [6-[[4-(trifluoromethylsulfonyl)phenyl]methyl]-2,6-diazaspiro[3.3]heptan-2-yl]-[6-[3-(trifluoromethyl)-1,2,4-triazol-1-yl]-2-azaspiro[3.3]heptan-2-yl]methanone] — 95-fold lower, 2.4 nM
